# According to patent publication US20070072897A1, “Phenylaminopropanol derivatives and methods of their use” (Wyeth, priority 2005, published 2007):
# Where a name gives a salt, the structure may show the parent alone.
# Target: T1, human hNET (Homo sapiens, UniProt P23975)
# T1 construct: expressed in transfected cells; host or cells: MDCK (MDCK-Net6)
# Assay: Norepinephrine (NE) uptake assay in MDCK-Net6 cells
# Assay type: cell-based
# Settings: [3H]NE uptake, MDCK-Net6 cells stably transfected with hNET
# Description: Cells were plated at 300,000/T75 flask and cells were split twice weekly. […] Cells were plated at 250,000 cells/T75 flask and split twice weekly.
# Norepinephrine (NE) Uptake Assay
# On day 1, cells were plated at 3,000 cells/well in growth medium and maintained in a cell incubator (37° C., 5% CO2). On day 2, growth medium was replaced with 200 μl of assay buffer (25 mM HEPES; 120 mM NaCl; 5 mM KCl; 2.5 mM CaCl2; 1.2 mM MgSO4; 2 mg/ml glucose (pH 7.4, 37° C.)) containing 0.2 mg/ml ascorbic acid and 10 μM pargyline. Plates containing cells with 200 μl of assay buffer were equilibrated for 10 minutes at 37° C. prior to addition of compounds. A stock solution of desipramine was prepared in DMSO (10 mM) and delivered to triplicate wells containing cells for a final test concentration of 1 μM. Data from these wells were used to define non-specific NE uptake (minimum NE uptake). Test compounds were prepared in DMSO (10 mM) and diluted in assay buffer according to test range (1 to 10,000 nM). Twenty-five microliters of assay buffer (maximum NE uptake) or test compound were added directly to triplicate wells containing cells in 200 μl of assay buffer. The cells in assay buffer with test compounds were incubated for 20 minutes at 37° C. […] The reaction was terminated by decanting the supernatant from the plate. The plates containing cells were washed twice with 200 μl assay buffer (37° C.) to remove free radioligand. The plates were then inverted, left to dry for 2 minutes, then reinverted and air-dried for an additional 10 minutes. […] After cell lysis, 75 μl of scintillation cocktail was added to each well and the plates were sealed with film tape. The plates were returned to the shake table and vigorously shaken for a minimum of 10 minutes to ensure adequate partitioning of organic and aqueous solutions. The plates were counted in a Wallac Microbeta counter (PerkinElmer) to collect the raw cpm data.
# For each experiment, a data stream of cpm values collected from the Wallac Microbeta counter was downloaded to a Microsoft Excel statistical application program. Calculations of EC50 values were made using the transformed-both-sides logistic dose response program written by Wyeth Biometrics Department.
# T1 sequence (P23975 whole entry): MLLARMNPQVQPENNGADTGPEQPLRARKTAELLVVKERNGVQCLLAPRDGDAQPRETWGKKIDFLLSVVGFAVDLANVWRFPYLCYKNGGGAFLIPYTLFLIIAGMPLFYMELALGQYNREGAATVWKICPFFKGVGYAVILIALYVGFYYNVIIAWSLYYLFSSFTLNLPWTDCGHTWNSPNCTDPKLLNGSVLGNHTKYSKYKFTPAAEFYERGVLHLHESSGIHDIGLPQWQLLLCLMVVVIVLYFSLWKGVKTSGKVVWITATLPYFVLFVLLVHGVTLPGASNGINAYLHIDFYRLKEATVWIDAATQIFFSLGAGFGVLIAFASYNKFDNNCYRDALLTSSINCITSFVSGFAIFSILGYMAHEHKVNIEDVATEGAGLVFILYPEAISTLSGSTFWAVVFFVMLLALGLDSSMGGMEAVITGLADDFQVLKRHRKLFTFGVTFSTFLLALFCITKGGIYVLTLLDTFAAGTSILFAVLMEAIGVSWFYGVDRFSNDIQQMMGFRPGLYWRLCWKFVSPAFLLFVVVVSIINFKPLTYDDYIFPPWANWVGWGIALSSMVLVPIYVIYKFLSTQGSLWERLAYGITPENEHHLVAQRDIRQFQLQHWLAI
row,EC50,SMILES
1,169 nM,"CNC[C@@H](O)[C@H](c1cccc(F)c1)n1cc(-c2ccccc2OC(C)C)c2ccccc21 [Example 35, (1S,2R)-1-(3-fluorophenyl)-3-(methylamino)-1-{3-[2-(isopropoxy)phenyl]-1H-indol-1-yl}propan-2-ol hydrochloride]"
2,92 nM,"CNC[C@@H](O)[C@H](c1cccc(Cl)c1)N1C(=O)C(C)(C)c2cccc(F)c21 [Example 69, 1-[(1S,2R)-1-(3-chlorophenyl)-2-hydroxy-3-(methylamino)propyl]-7-fluoro-3,3-dimethyl-1,3-dihydro-2H-indol-2-one hydrochloride]"
3,240 nM,"CNC[C@@H](O)[C@H](c1ccccc1)N1C(=O)C(C)(C)c2cc(OCc3ccccc3)ccc21 [Example 68, 5-benzyloxy-1-[(1S,2R)-2-hydroxy-3-(methylamino)-1-phenylpropyl]-3,3-dimethyl-1,3-dihydro-2H-indol-2-one hydrochloride]"
4,16 nM,"CCC1CN([C@@H](c2ccccc2)[C@H](O)CNC)c2ccccc21 (stereo partly drawn) [Example 59, (1S,2R)-1-(3-ethyl-2,3-dihydro-1H-indol-1-yl)-3-(methylamino)-1-phenylpropan-2-ol hydrochloride]"
5,4 nM,"CNC[C@@H](O)[C@H](c1cc(F)cc(F)c1)N1C(=O)C(C)(C)c2cccc(F)c21 [Example 62, 1-[(1S,2R)-1-(3,5-difluorophenyl)-2-hydroxy-3-(methylamino)propyl]-7-fluoro-3,3-dimethyl-1,3-dihydro-2H-indol-2-one hydrochloride]"
6,40 nM,"CNC[C@@H](O)[C@H](c1cccc(F)c1)N1C(=O)C(C)(C)c2ccc(F)cc21 [Example 118, 6-fluoro-1-[(1S,2R)-1-(3-fluorophenyl)-2-hydroxy-3-(methylamino)propyl]-3,3-dimethyl-1,3-dihydro-2H-indol-2-one hydrochloride]"
7,521 nM,"CNC[C@@H](O)[C@H](c1cccc(F)c1)n1ccc2ccnc(C)c21 [Example 50, (1S,2R)-1-(3-fluorophenyl)-3-(methylamino)-1-(7-methyl-1H-pyrrolo[2,3-c]pyridin-1-yl)propan-2-ol hydrochloride]"
8,92 nM,"CNC[C@@H](O)[C@H](c1cccc(F)c1)n1c(=O)n(-c2ccccc2)c2cccc(F)c21 [Example 120, 4-fluoro-3-[(1S,2R)-1-(3-fluorophenyl)-2-hydroxy-3-(methylamino)propyl]-1-phenyl-1,3-dihydro-2H-benzimidazol-2-one hydrochloride]"
9,70 nM,"CNC[C@@H](O)[C@H](c1cccc(F)c1)n1cc(-c2cc(F)ccc2F)c2ccccc21 [Example 39, (1S,2R)-1-[3-(2,5-difluorophenyl)-1H-indol-1-yl]-1-(3-fluorophenyl)-3-(methylamino)propan-2-ol hydrochloride]"
10,186 nM,"CNC[C@@H](O)[C@H](c1cccc(Cl)c1)N1C(=O)C2(CCCCC2)c2ccc(F)cc21 [Example 111, 1′-[(1S,2R)-1-(3-chlorophenyl)-2-hydroxy-3-(methylamino)propyl]-6′-fluorospiro[cyclohexane-1,3′-indol]-2′(1′H)-one hydrochloride]"

# Same assay, conditions: at 1 μM; [3H]NE uptake, MDCK-Net6 cells; read-out: hNET Percentage inhibition at 1 μM
row,inhibition at 1 µM,SMILES
1,51%,"CNC[C@@H](O)[C@H](c1cccc(F)c1)n1ccc2cc(C)ncc21 [Example 48, (1S,2R)-1-(3-fluorophenyl)-3-(methylamino)-1-(5-methyl-1H-pyrrolo[2,3-c]pyridin-1-yl)propan-2-ol hydrochloride]"
2,51%,"CNC[C@@H](O)[C@H](c1ccccc1)n1ccc2ccnc(C)c21 [Example 49, (1S,2R)-3-(methylamino)-1-(7-methyl-1H-pyrrolo[2,3-c]pyridin-1-yl)-1-phenylpropan-2-ol hydrochloride]"
3,35%,"CNC[C@@H](O)[C@H](c1ccccc1)n1ccc2cc(C)ncc21 [Example 47, (1S,2R)-3-(methylamino)-1-(5-methyl-1H-pyrrolo[2.3-c]pyridin-1-yl)-1-phenylpropan-2-ol hydrochloride]"
